From US20260015364A1, “PIPERAZINE BRIDGE-SUBSTITUTED HETEROCYCLIC PYRIMIDINE COMPOUND” (MEDSHINE DISCOVERY INC., priority 2022, published 2026)

Test system: p-ERK in GP2D cells
Experiment: p-ERK inhibition test of GP2D cells (HTRF)
Type: cell-based
Conditions: Homo sapiens, 1 hour compound incubation
Experimental: • 1). GP2D cells are seeded in a transparent 96-well cell culture plate, with 80 μL of cell suspension per well and 8000 cells per well, and the cell plate is incubated in a carbon dioxide incubator at 37° C. overnight; • 2). 2 μL of the compound is added to 78 μL of cell culture medium; after mixing well, 20 μL of the compound solution is taken and added to the corresponding cell plate wells, and the cell plate is put back into the carbon dioxide incubator to incubate for another 1 hour; • 3). After the incubation is completed, the cell supernatant is discarded, and 50 μL of 1× cell lysate is added to each well, and incubated at room temperature for 30 minutes with shaking; • 4). Phospho-ERK1/2 Eu Cryptate antibody and Phospho-ERK1/2 d2 antibody are 20-fold diluted using detection buffer; • 5). […] After the incubation is completed, a multimode microplate reader is used to read HTRF excitation: 320 nm, emission: 615 nm, 665 nm; • 7). The IC50 of the test compound is calculated.
• 1). […] After the incubation was completed, a multimode microplate reader was used to read HTRF excitation: 320 nm, emission: 615 nm, 665 nm; • 7) The IC50 of the test compound was calculated.

## Nc1cc(F)c(C(F)(F)F)c(-c2ncc3c(N4CC5C=CC(C4)N5)nc(OC[C@@]45CCCN4C[C@H](F)C5)nc3c2F)c1 [Compound 1]
  IC50: 4.75 nM
